We go through 21 compounds from patent US20240228469A1, “PCSK9 INHIBITORS AND METHODS OF USE THEREOF” (AstraZeneca AB, priority 2022, published 2024).

For assay [1], the target named is GSK3β (Glycogen synthase kinase-3 beta) (Homo sapiens, UniProt P49841). Description: Assay 6 GSK3β assay (ThermoFisher Z-Lyte FRET). The format is biochemical. As to conditions: ATP Conc: 10 μM, geometric mean; read-out: Assay 6 (GSK3β FRET-Z-Lyte Cr) GMean IC50. The method, then: This assay measures the activity of the compounds at GSK33 (Glycogen synthase kinase-3 beta).
Sequence of GSK3β (Glycogen synthase kinase-3 beta) (P49841 whole entry): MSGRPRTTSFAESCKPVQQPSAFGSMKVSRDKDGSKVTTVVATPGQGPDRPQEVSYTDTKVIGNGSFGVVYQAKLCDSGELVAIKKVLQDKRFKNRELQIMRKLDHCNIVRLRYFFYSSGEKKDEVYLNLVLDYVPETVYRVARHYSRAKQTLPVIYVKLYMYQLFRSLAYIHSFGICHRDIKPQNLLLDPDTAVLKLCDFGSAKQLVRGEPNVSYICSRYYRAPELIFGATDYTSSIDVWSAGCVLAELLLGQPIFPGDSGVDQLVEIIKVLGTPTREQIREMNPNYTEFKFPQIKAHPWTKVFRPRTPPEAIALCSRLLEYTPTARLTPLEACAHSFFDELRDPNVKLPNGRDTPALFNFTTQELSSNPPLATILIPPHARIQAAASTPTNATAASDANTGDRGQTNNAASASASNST
The test compounds were screened in 1% DMSO (final) in the well. For 10 point titrations, 3-fold serial dilutions are conducted from the starting concentration of 10 PM.
Bar-coded Corning, low volume NBS, black 384-well plate • 1. 2.5 μL—4× Test Compound or 100 nL 100× plus 2.4 μL kinase buffer • 2. 5 μL—2× Peptide/Kinase Mixture • 3. 2.5 μL—4×ATP Solution • 4. 30-second plate shake • 5. 60-minute Kinase Reaction incubation at room temperature • 6. 5 μL—Development Reagent Solution • 7. 30-second plate shake • 8. 60-minute Development Reaction incubation at room temperature • 9. Read on fluorescence plate reader and analyse the data
In step 2, the 2×GSK3β (GSK3 beta)/Ser/Thr (Glycogen synthase kinase-3 beta/Serine/Threonine) 09 mixture is prepared in 50 mM HEPES (4-(2-hydroxyethyl)-1-piperazineethanesulfonic acid) pH 7.5, 0.01% BRIJ-35, 10 mM MgCl2, 1 mM EGTA (egtazic acid). The final 10 μL Kinase Reaction consists of 0.22-0.92 ng GSK3β (GSK3 beta) and 2 PM Ser/Thr 09 in 50 mM HEPES pH 7.5, 0.01% BRIJ-35, 10 mM MgCl2, 1 mM EGTA.
In step 3 the ATP Solution is diluted to a 4× working concentration in Kinase Buffer (50 mM HEPES pH 7.5, 0.01% BRIJ-35, 10 mM MgCl2, 1 mM EGTA).
In Step 6 the Development Reagent is diluted 1:512 in Development Buffer (10× Novel PKC Lipid Mix: 2 mg/mL Phosphatidyl Serine, 0.2 mg/mL DAG in 20 mM HEPES, pH 7.4, 0.3% CHAPS).
SelectScreen® Kinase Profiling Service uses XLfit from IDBS. The dose response curve is curve fit to model number 205 (sigmoidal dose-response model).

The target in assay [2] is T1, potassium ion channel hERG (Homo sapiens, UniProt Q12809).
T1 construct: expressed in transfected cells; host or cells: Chinese hamster ovary K1 (CHO)
T1 sequence (Q12809 whole entry): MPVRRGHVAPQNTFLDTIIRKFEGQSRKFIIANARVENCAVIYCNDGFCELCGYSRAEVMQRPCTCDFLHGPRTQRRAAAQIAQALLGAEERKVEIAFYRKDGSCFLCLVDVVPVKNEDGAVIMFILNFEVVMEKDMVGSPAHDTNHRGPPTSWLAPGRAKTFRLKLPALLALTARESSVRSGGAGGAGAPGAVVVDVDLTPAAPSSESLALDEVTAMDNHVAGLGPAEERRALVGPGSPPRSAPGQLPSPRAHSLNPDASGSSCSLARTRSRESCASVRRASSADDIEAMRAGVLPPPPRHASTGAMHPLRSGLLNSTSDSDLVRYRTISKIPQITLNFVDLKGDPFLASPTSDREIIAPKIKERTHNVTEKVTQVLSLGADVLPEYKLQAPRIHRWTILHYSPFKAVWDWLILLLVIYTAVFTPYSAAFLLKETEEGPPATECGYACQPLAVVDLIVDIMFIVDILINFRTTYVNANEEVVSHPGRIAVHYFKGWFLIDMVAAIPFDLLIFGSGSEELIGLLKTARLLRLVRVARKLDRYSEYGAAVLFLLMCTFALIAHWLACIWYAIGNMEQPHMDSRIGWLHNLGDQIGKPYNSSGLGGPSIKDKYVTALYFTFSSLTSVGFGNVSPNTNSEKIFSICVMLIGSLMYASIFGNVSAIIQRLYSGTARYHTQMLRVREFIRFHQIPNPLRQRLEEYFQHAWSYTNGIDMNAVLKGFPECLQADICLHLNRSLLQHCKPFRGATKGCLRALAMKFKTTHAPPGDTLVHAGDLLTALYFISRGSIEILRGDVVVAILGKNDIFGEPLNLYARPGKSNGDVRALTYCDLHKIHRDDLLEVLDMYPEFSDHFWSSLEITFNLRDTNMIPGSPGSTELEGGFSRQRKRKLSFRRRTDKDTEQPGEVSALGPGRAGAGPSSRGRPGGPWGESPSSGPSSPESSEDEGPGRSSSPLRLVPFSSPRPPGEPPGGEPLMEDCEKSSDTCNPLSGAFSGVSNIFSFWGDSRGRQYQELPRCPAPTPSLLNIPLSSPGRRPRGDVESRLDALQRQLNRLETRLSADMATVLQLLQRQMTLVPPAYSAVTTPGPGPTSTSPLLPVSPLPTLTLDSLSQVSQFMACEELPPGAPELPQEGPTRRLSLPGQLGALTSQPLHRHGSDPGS
Description: Assay 5 hERG assay (patch clamp, CHO cells over-expressing hERG). The format is cell-based. As to conditions: SyncroPatch 384PE, room temperature, geometric mean, read-out: Assay 5 (hERG Hu CHO if EPh CR-Syncro) GMean IC50. The method, then: This assay (human Ether-d-go-go-Related Gene) measures activity of the compounds at the potassium ion channel hERG (human Ether-d-go-go-Related Gene).
Experiments were performed on the SyncroPatch 384PE high throughput patch clamp platform at room temperature and medium resistance chips with 4 patch holes per site. Chinese hamster ovary K1 (CHO) cell lines over-expressing the ion channel of choice (hERG) were used in assay-ready format and kept in liquid nitrogen or were used from live culture. Cells were either thawed and diluted in HBSS or were detached from flasks and resuspended in HBSS. HBSS comprised 140 mM NaCl, 4 mM KCl, 10 mM HEPES and 5 mM Glucose (pH7.4). The internal patch clamp solution was KF 120 mM, KCl 20 mM, HEPES 10 mM, EGTA 10 mM, and 25 PM Escin (pH 7.2). After the sealing process was complete, the external solution was exchanged for external patch clamp solution comprising NaCl 80 mM, KCl 4 mM, HEPES 10 mM, CaCl2 2 mM, MgCl2 1 mM, glucose 5 mM, and NMDG 60 mM (pH 7.4). All solutions were stored at room temperature, except Escin, which was stored at 4° C. All test compounds were dispensed in greiner-bio 384 well plates and tested in a 6 point cumulative assay (final DMSO concentration 0.33%). Only wells that passed previously agreed acceptance criteria for this platform were used in this analysis (30 MegaOhm seal resistance, Z prime >0.4 and current size >0.2 nA). […]
Background: hERG is a cardiac potassium channel; its block is linked to QT prolongation.

The target of the next assay is PCSK9 (Homo sapiens, UniProt Q8NBP7, G670E/V474I). The experiment in a line: biochemical.
Sequence of PCSK9 (Q8NBP7 with tags, fused parts or gaps V474I/G670E): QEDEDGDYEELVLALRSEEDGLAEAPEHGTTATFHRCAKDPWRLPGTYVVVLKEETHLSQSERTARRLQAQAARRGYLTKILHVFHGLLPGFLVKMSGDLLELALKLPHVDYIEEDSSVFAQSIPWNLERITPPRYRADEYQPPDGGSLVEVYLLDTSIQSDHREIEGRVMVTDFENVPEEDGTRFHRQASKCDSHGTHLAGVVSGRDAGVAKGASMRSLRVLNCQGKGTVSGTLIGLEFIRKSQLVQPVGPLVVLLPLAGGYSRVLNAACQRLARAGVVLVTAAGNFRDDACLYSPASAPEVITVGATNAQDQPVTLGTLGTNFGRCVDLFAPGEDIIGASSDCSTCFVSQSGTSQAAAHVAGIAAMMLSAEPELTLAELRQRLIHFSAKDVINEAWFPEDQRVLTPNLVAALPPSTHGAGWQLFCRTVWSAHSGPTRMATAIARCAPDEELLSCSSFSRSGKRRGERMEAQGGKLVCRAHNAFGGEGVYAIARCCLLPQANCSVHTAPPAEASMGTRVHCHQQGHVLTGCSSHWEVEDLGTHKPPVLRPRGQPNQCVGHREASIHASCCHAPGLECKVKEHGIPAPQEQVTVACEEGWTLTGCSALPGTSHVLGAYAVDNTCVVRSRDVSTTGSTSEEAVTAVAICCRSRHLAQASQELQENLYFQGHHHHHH

In general, IC50 refers to the concentration that inhibits the measured activity by half. Consider `COc1cccc(-c2ccc(N[C@H]3CC[C@H](Nc4ncc(C)nn4)C3)nc2)n1` [Example 305, (1S,3S)—N′-(6-Methoxy-[2,3′-bipyridin]-6′-yl)-N^3-(6-methyl-1,2,4-triazin-3-yl)cyclopentane-1,3-diamine], for which the results for the IC50 (in assay [1]; in assay [2]; at PCSK9) were greater than 10 µM, 3.2 µM and 0.091 µM, respectively.

As to `Cc1cnc(N[C@H]2CC[C@H](Nc3ccc(-n4ccc(C#N)cc4=O)cn3)C2)nn1` [Example 183, 6′-(((1S,3S)-3-((6-Methyl-1,2,4-triazin-3-yl)amino)cyclopentyl)amino)-2-oxo-2H-[1,3′-bipyridine]-4-carbonitrile], the IC50 in assay [1] was greater than 10 µM; in assay [2], greater than 40.1 µM; on PCSK9, 0.03 µM.

Take `Cc1cnc(N[C@H]2CC[C@H](Nc3ccc(-c4ncccc4C)cn3)C2)nn1` [Example 248]: the IC50 is greater than 10 µM in assay [1], greater than 40.1 µM in assay [2] and 0.013 µM against PCSK9.

As to `N#Cc1ccc(F)c(-c2ccc(N[C@H]3CC[C@H](Nc4ncc(C5CC5)nn4)C3)nc2)n1` [Example 61, 6′-(((1S,3S)-3-((6-Cyclopropyl-1,2,4-triazin-3-yl)amino)cyclopentyl)amino)-3-fluoro-[2,3′-bipyridine]-6-carbonitrile], the values for the IC50 (in assay [1]; in assay [2]; against PCSK9) were greater than 10 µM, 5.6 µM and 0.184 µM, respectively.

Regarding `Cc1cnc(N[C@H]2CC[C@H](Nc3ccc(-n4c(C)nc(C)c4C#N)cn3)C2)nn1` [Example 250, 2,4-Dimethyl-1-(6-(((1S,3S)-3-((6-methyl-1,2,4-triazin-3-yl)amino)cyclopentyl)amino)pyridin-3-yl)-1H-imidazole-5-carbonitrile], the IC50 in assay [1] was greater than 10 µM; in assay [2], greater than 40.1 µM; against PCSK9, 0.108 µM.

In the case of `COc1cccnc1-c1ccc(N[C@H]2CC[C@H](Nc3ncc(C)nn3)C2)nc1` [Example 304, (1S,3S)—N′-(3-Methoxy-[2,3′-bipyridin]-6′-yl)-N^3-(6-methyl-1,2,4-triazin-3-yl)cyclopentane-1,3-diamine], the IC50 in assay [1] is greater than 10 µM; in assay [2], greater than 40.1 µM; against PCSK9 it was 0.096 µM.

Take `Cc1cnc(N[C@H]2CC[C@H](Nc3ccc(-c4ccccn4)cn3)C2)nn1` [Example 309, (1S,3S)—N′-([2,3′-Bipyridin]-6′-yl)-N^3-(6-methyl-1,2,4-triazin-3-yl)cyclopentane-1,3-diamine]: the results for the IC50 (in assay [1]; in assay [2]; at PCSK9) were greater than 10 µM, 11.4 µM and 0.534 µM, respectively.

For `Cn1cccc(-c2cnc(N[C@H]3CC[C@H](Nc4ncc(C5CC5)nn4)C3)cn2)c1=O` [Example 113, 3-(5-(((1S,3S)-3-((6-Cyclopropyl-1,2,4-triazin-3-yl)amino)cyclopentyl)amino)pyrazin-2-yl)-1-methylpyridin-2(1H)-one], the results for the IC50 (in assay [1]; in assay [2]; at PCSK9) were greater than 10 µM, greater than 40 µM and 0.041 µM, respectively.

As to `COc1c(C#N)ccc(F)c1-c1ccc(N[C@H]2CC[C@H](Nc3ncc(C4CC4)nn3)C2)nc1` [Example 168, 3-(6-(((1S,3S)-3-((6-Cyclopropyl-1,2,4-triazin-3-yl)amino)cyclopentyl)amino)pyridin-3-yl)-4-fluoro-2-methoxybenzonitrile], the IC50 in assay [1] is greater than 10 µM; in assay [2] it was 3.1 µM.

For `O=c1ccccn1-c1ccc(N[C@H]2CC[C@H](Nc3ncc(-c4ccn[nH]4)nn3)C2)nc1` [Example 257, 6′-(((1S,3S)-3-((6-(1H-Pyrazol-5-yl)-1,2,4-triazin-3-yl)amino)cyclopentyl)amino)-2H-[1,3′-bipyridin]-2-one], the IC50 in assay [1] is 2.81 µM; in assay [2] it was greater than 40.1 µM; at PCSK9 it was 0.062 µM.

`Cc1cnc(NCC(CCO)CNc2ccc(-n3c(=O)ccc4ccccc43)cn2)nn1` (racemic) [Example 318, rac-1-(6-((4-Hydroxy-2-(((6-methyl-1,2,4-triazin-3-yl)amino)methyl)butyl)amino)pyridin-3-yl)quinolin-2(1H)-one]: the IC50 in assay [2] is greater than 40 µM; at PCSK9 it was 0.284 µM.

For the compound `CN(C)c1cnc(N[C@H]2CC[C@H](Nc3ccc(-n4ccccc4=O)cn3)C2)nn1` [Example 256, 6′-(((1S,3S)-3-((6-(Dimethylamino)-1,2,4-triazin-3-yl)amino)cyclopentyl)amino)-2H-[1,3′-bipyridin]-2-one], the results for the IC50 (in assay [1]; in assay [2]; on PCSK9) were 1.68 µM, greater than 40.1 µM and 0.119 µM, respectively.

Take `NC(=O)CNC(=O)c1cnc(N[C@H]2CC[C@H](Nc3ccc(-n4ccccc4=O)cn3)C2)nn1` [Example 68, N-(2-Amino-2-oxoethyl)-3-(((1S,3S)-3-((2-oxo-2H-[1,3′-bipyridin]-6′-yl)amino)cyclopentyl)amino)-1,2,4-triazine-6-carboxamide]: the IC50 is greater than 10 µM in assay [1], greater than 40 µM in assay [2] and 0.168 µM against PCSK9.

For the compound `Cc1cnc(N[C@H]2CC[C@H](Nc3ccc(-n4nc(C)nc4C)cn3)C2)nn1` [Example 313, (1S,3S)—N^1-(5-(3,5-dimethyl-1H-1,2,4-triazol-1-yl)pyridin-2-yl)-N^3-(6-methyl-1,2,4-triazin-3-yl)cyclopentane-1,3-diamine], the results for the IC50 (in assay [1]; in assay [2]; on PCSK9) were greater than 10 µM, greater than 40.1 µM and 0.016 µM, respectively.

Take `COc1c(C(=O)O)ccc(F)c1-c1ccc(N[C@H]2CC[C@H](Nc3ncc(C4CC4)nn3)C2)nc1` [Example 167, 3-(6-(((1S,3S)-3-((6-Cyclopropyl-1,2,4-triazin-3-yl)amino)cyclopentyl)amino)pyridin-3-yl)-4-fluoro-2-methoxybenzoic acid]: the results for the IC50 in assay [1] and in assay [2] were greater than 10 µM and greater than 40.1 µM, respectively.

Take `Cc1cnc(NCC(CCO)CNc2ccc(-n3c(=O)n(C)c4ccccc43)cn2)nn1` (racemic) [Example 321, rac-1-(6-((4-Hydroxy-2-(((6-methyl-1,2,4-triazin-3-yl)amino)methyl)butyl)amino)pyridin-3-yl)-3-methyl-1,3-dihydro-2H-benzo[d]imidazol-2-one]: the IC50 in assay [2] is greater than 40 µM; at PCSK9 it was 0.297 µM.

As to `Cc1cnc(NCC(CCO)CNc2ccc(-n3c(=O)ccc4cccnc43)cn2)nn1` (racemic) [Example 320, rac-1-(6-((4-Hydroxy-2-(((6-methyl-1,2,4-triazin-3-yl)amino)methyl)butyl)amino)pyridin-3-yl)-1,8-naphthyridin-2(1H)-one], the IC50 in assay [2] was greater than 40 µM; at PCSK9, 0.559 µM.

Consider `Cc1cnc(NCC(CCO)CNc2ccc(-n3c(=O)n(C)c4cccnc43)cn2)nn1` (racemic) [Example 319, rac-3-(6-((4-Hydroxy-2-(((6-methyl-1,2,4-triazin-3-yl)amino)methyl)butyl)amino)pyridin-3-yl)-1-methyl-1,3-dihydro-2H-imidazo[4,5-b]pyridin-2-one], for which the values for the IC50 (in assay [2]; against PCSK9) were greater than 40 µM and 0.705 µM, respectively.

For the compound `Fc1cccc(F)c1-c1ccc(N[C@H]2CC[C@H](Nc3ncc(C4CC4)nn3)C2)nc1` [Example 53], the figures for the IC50 in assay [1] and in assay [2] were greater than 10 µM and 3.4 µM, respectively.

Turning to `Cc1ccc(=O)n(-c2ccc(NCC(CCO)CNc3ncc(C)nn3)nc2)c1` (racemic) [Example 316, rac-6′-((4-Hydroxy-2-(((6-methyl-1,2,4-triazin-3-yl)amino)methyl)butyl)amino)-5-methyl-2H-[1,3′-bipyridin]-2-one], the values for the IC50 (in assay [2]; at PCSK9) were greater than 40 µM and 7.43 µM, respectively.

As to `COc1cccc(F)c1-c1ccc(N[C@H]2CC[C@H](Nc3ncc(C4CC4)nn3)C2)nc1` [Example 54], the IC50 in assay [1] is greater than 10 µM; in assay [2], 4.3 µM.
